Test results reported in US7371207B2 (Wyeth, priority 2002, dated 2008).

Assays:
Type in all cases: in vivo, mouse
[1] = test system: gene expression in the kidney; assay: In situ hybridization of kidney, ovariectomized mice; conditions: 20 μg/kg/day E2 six weeks, FIG. 3
Excerpt: No signal was detected with the corresponding sense probes.
Generally, in situ hybridization comprises the following major steps: (1) fixation of tissue or biological structure to be analyzed; (2) prehybridization treatment of the biological structure to increase accessibility of target nucleic acid, and to reduce nonspecific binding; (3) hybridization of the mixture of nucleic acids to the nucleic acid in the biological structure or tissue; (4) post-hybridization washes to remove nucleic acid fragments not bound in the hybridization, and (5) detection of the hybridized nucleic acid fragments. The probes used in such applications are typically labeled, for example, with radioisotopes or fluorescent reporters. Preferred probes are sufficiently long, for example, from about 50, 100, or 200 nucleotides to about 1000 or more nucleotides, to enable specific hybridization with the target nucleic acid(s) under stringent conditions.
(§1) One week later, the animals were ovariectomized.

[2] = test system: gene expression in the uterus; assay: Real-time PCR of uterine gene expression in ovariectomized WT mice; conditions: various doses s.c. six weeks, FIG. 5
Excerpt: as §1

[3] = test system: gene expression in bone marrow; assay: GeneChip microarray survey of E2 regulated gene expression, bone marrow; conditions: 20 μg/kg/day E2 s.c. six weeks; WT and ERβKO ovariectomized mice; number of genes
Procedure: FIG. 1 depicts a pattern analysis generated by a GeneChip microarray analysis. […] Two hours following the final dose, the mice were euthanized and 13 tissues removed for RNA preparation. Two independent studies were performed, with total RNA pooled from two groups of three animals for each condition. Gene expression was quantified by GeneChip microarrays using murine U74 sub A arrays. Data were analyzed for patterns indicating either ERα or ERβ dependent regulation as shown. […] The number of genes in each tissue that matched the theoretical induction (↑) or repression (↓) patterns for ERα or ERβ are indicated.
as §1
GeneChip—Total RNA was prepared separately from each individual organ by using Trizol (Invitrogen) followed by subsequent repurification on Rneasy columns (Qiagen). In general, two pools of RNA were created using equal amounts of RNA from three mice. […]
Target Preparation and Array Hybridization—Total RNA was used to generate biotin labeled cRNA target as described (8) which was hybridized to the murine MG_U74Av2 probe arrays (Affymetrix, Santa Clara, Calif.) for 16 h at 45° C. Eleven biotin-labeled cRNAs at defined concentration were spiked into each hybridization and used to convert average difference values to frequencies expressed as parts per million. […]

SMILES: C[C@]12CC[C@@H]3c4ccc(O)cc4CC[C@H]3[C@@H]1CC[C@@H]2O [E2, 17β-estradiol]
- localization of induction of CYP7B1, TF, STAT5A and GADD45G in mouse kidney [1]: induction of gene expression occurred in the juxtamedullary region of the kidney
- ED50 for BCAT1 induction in the uterus [2]: 0.2 µg/kg/day
- ED50 for c-fos induction in the uterus [2]: 2.7 µg/kg/day
- ERα pattern regulations in bone marrow, number of inductions [3]: 3
- ERα pattern regulations in bone marrow, number of repressions [3]: 3
